The subject of the experiment is A549 cells (human Non Small Cell Lung Cancer). The experiment in a line: cytotoxicity assay with A549 cells using standard Alamar Blue Assay. The settings on record: for cell vitality: A549 cells, 48 h incubation, Alamar Blue, versus control cells, L-Glutamate at 2 mM. For orientation: Alamar Blue is a resazurin reagent that responds to reducing activity.

Structures can show the parent of a compound that is named as a salt.

Protocol: A Dulbecco's modified Eagle's Medium (Sigma D0422), supplemented with Glutamine and 10% foetal calf serum (FCS) were used as incubation buffer. The cells were incubated for 48 h with test compounds and investigated according to manufacturer's protocol.
Afterwards, cell vitality was measured with the Alamar Blue assay kit as described above.

Regarding `N[C@@H](C[C@H](Cc1cc(C(F)(F)F)ccc1F)C(=O)O)C(=O)O` [Example 5, Neutral sodium salt of (2S,4S)-2-Amino-4-(2-fluoro-5-trifluoromethyl-benzyl)-pentane dioic acid], the cell vitality result is on record as “strong decrease of the cell vitality”.
In the case of `N[C@@H](C[C@H](CCCF)C(=O)O)C(=O)O` [Example 1], the cell vitality result was “strong decrease of the cell vitality”. Further, under “Homo sapiens, A549, read-out: EC50 (cell vitality)”, the EC50 is around 38 µM.
Regarding `N[C@@H](CCC(=O)O)C(=O)O` [L-Glutamate, reference compound], the cell vitality entry is “no differences in cell vitality”.

As a reminder, the EC50 is the concentration needed to bring the measured effect to its halfway point.

These data come from US20140227191A1, “L-GLUTAMIC ACID AND L-GLUTAMINE DERIVATIVE (III), USE THEREOF AND METHOD FOR OBTAINING THEM” (BAYER SCHERING PHARMA AKTIENGESELLSCHAFT, priority 2008, published 2014).
